Experimental data reported in patent US20220143226A1, “USE OF TRIAZOLO[4,5-D]PYRIMIDINE DERIVATIVES” (UNIVERSITÉ DE LIÈGE, priority 2019, published 2022).

What was measured:
[1] = test system: S. epidermidis bacteria; experiment: Radiotracer uptake into bacteria, selectivity over mammalian cells (Example 4); type: cell-based; settings: 2 MBq tracer, 1 h at 37° C.
Method: S. epidermidis bacteria were grown overnight in tryptic soy broth (TSB) at 37° C., with shaking at 250 rpm. The overnight culture was diluted to OD600 0.1 and incubated until mid-exponential phase was reached. 1×10^8 CFU were resuspended in 1 ml RPMI 1640. […] Bacteria and non-adherent cells were harvested by centrifugation (600×g, 5 min) and washed three times by successive centrifugations. Cell supernatants were collected in scintillation vials. After washing, the cells were transferred into scintillation vials. Adherent cells were washed three times with fresh medium (McCoy's 5A medium plus 10% foetal bovine serum). Supernatants were collected into scintillation vials. Adherent cells were detached by trypsin treatment and placed into scintillation vials. The scintillation vials for cells and supernatants were counted by gamma counter. Results were obtained as counts per min. Results were normalised for controls (no cells) and by calculating the percentage of activity in the cell containing scintillation vials compared with the total counts (cells and supernatant combined).

[2] = test system: THP1 cells; experiment: Radiotracer uptake into THP1 cells; type: cell-based, human; settings: 2 MBq tracer, 1 h at 37° C.
Method: (§1) THP1 (ATCC® TIB-202™) and HL60 (ATCC® CCL-240™) cell lines were grown in RPMI 1640 tissue culture medium supplemented with L-glutamine, 10% foetal calf serum and 1% penicillin/streptomycin at 37° C. and 5% CO2. HT29 cell line (ATCC® HTB-38) was grown in McCoy's 5A medium and 10% foetal bovine serum at 37° C. and 5% CO2.
(§2) Non-adherent cell lines (HL60, THP1; 1×10^6 cells ml^−1) were harvested, washed and resuspended in 1 ml tissue culture medium. The adherent cells HT29 were maintained in 6-well plates at 80% confluence.
(§3) Bacteria and non-adherent cells were harvested by centrifugation (600×g, 5 min) and washed three times by successive centrifugations. Cell supernatants were collected in scintillation vials. After washing, the cells were transferred into scintillation vials. Adherent cells were washed three times with fresh medium (McCoy's 5A medium plus 10% foetal bovine serum). Supernatants were collected into scintillation vials. Adherent cells were detached by trypsin treatment and placed into scintillation vials. The scintillation vials for cells and supernatants were counted by gamma counter. Results were obtained as counts per min. Results were normalised for controls (no cells) and by calculating the percentage of activity in the cell containing scintillation vials compared with the total counts (cells and supernatant combined).

[3] = test system: HT29 cells; experiment: Radiotracer uptake into HT29 cells; type: cell-based, human; settings: 2 MBq tracer, 1 h at 37° C.
Method: as §1, §2, §3

[4] = test system: platelet suspensions containing bacteria; experiment: Radiotracer uptake into platelet suspensions containing bacteria; type: cell-based, human; settings: 2 MBq tracer, 1 h at 37° C.
Method: Preparation of human washed platelets: a Blood sample was collected from healthy volunteers on Acid Citrate Dextrose (ACD: 93 mM Na3-citrate, 7 mM citric acid, 14 mM dextrose, pH 6.0) containing 1 U/ml apyrase in a volume ratio of ACD to blood of 1:6. Blood was centrifuged for 5 s at 800×g followed by 5 min at 100×g to obtain platelet rich plasma (PRP). PRP was diluted 3-fold in ACD containing 1 U/ml apyrase ((Apyrase from potatoes, Grade I (A6132 Sigma-Aldrich)) and centrifuged at 1000×g to obtain a platelet pellet. The platelet pellet was resuspended at a concentration of 3×10^8 ml^−1 in Tyrode's buffer (137 mM NaCl, 12 mM NaHCO3, 2 mM KCl, 0.34 mM Na2HPO4, 1 mM MgCl2, 5.5 mM glucose, 5 mM Hepes, 0.35% Bovine Serum Albumine from Sigma Aldrich A3294) and Hepes refers to 4-(2-Hydroxyethyl)piperazine-1-ethanesulfonic acid, N-(2-Hydroxyethyl)piperazine-N′-(2-ethanesulfonic acid) (H4034, Sigma-Aldrich).
Bacteria and platelets were harvested by centrifugation (1000×g, 10 min) and washed three times by successive centrifugations (1000×g for 10 min). Supernatants were collected in scintillation vials. After washing, the cells were transferred into scintillation vials. Cells and supernatants were counted by gamma counter (2470 Wizard^2™ (Perkin Elmer))
Results were obtained as counts per min. […]

[5] = test system: HL60 cells; experiment: Radiotracer uptake into HL60 cells; type: cell-based, human; settings: 2 MBq tracer, 1 h at 37° C.
Method: as §1, §2, §3

[6] = target: platelet P2Y12 receptor (Homo sapiens, UniProt Q9H244); settings: well-known in the art; cited from earlier work
Sequence of platelet P2Y12 receptor (Q9H244 whole entry): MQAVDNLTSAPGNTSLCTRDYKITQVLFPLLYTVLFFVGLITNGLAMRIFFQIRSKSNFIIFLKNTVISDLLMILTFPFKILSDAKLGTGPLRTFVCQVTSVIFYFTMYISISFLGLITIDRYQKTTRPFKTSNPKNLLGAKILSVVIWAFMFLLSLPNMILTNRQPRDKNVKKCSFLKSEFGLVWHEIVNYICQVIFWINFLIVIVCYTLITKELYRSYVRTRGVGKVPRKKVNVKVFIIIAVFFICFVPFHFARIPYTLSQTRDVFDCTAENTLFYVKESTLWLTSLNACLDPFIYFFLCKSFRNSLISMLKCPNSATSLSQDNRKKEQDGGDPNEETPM

## CCCSc1nc(NC2CC2c2ccc([18F])c(F)c2)c2nnn([C@@H]3C[C@H](OCCO)[C@@H](O)[C@H]3O)c2n1 (stereo partly drawn) [^18F-Triafluocyl, (1S,2S,3R,5S)-3-(7-((2-(3-fluoro-4-(fluoro-^18F)phenyl)cyclopropyl)amino)-5-(propylthio)-3H-[1,2,3]triazolo[4,5-d]pyrimidin-3-yl)-5-(2-hydroxyethoxy)cyclopentane-1,2-diol]
[1]
  uptake into bacteria: uptake into bacteria
[2]
  uptake into THP1 (leukocytic) cells: no uptake was observed
[3]
  uptake into HT29 (tumor) cells: no uptake was observed
[4]
  relative activity associated with the cell mixture, relative to the activity of 18F-FDG: about 10 fold
[5]
  uptake into HL-60 (leukocytic) cells: no uptake was observed

## CCCSc1nc(N[C@@H]2C[C@H]2c2ccc(F)c(F)c2)c2nnn([C@@H]3C[C@H](OCCO)[C@@H](O)[C@H]3O)c2n1 [Triafluocyl]
[6]
  binding to platelet P2Y12 receptor: binds the platelet P2Y12 receptor reversibly
